{"source": "patent US9155308B2", "about": "“Agricultural pesticide formulation” (priority 2013, dated 2015)", "origin": "cited, not measured here", "details": "based on animal studies"}
{"smiles": "Cc1c(COC(=O)[C@@H]2[C@H](/C=C(\\Cl)C(F)(F)F)C2(C)C)cccc1-c1ccccc1", "note": "(racemic) [bifenthrin, Bifenthrin]", "values": [{"measurement": "chronic reference dose (RfD)", "setting": "daily exposure", "value": 0.013, "unit": "mg/kg bodyweight/day"}, {"measurement": "acute reference dose (RfD)", "setting": "one-time exposure", "value": 0.328, "unit": "mg/kg bodyweight/day"}]}
